Laboratory results taken from article PMC12649225, “Machine Learning-Identified Potent Antimicrobial Peptides Against Multidrug-Resistant Bacteria and Skin Infections” (Antibiotics, 2025).
Residues, ends and D or L forms follow the SMILES beside them.

Tests used:
[1] = tested on: K. pneumoniae LUH15104; format: cell-based
[2] = tested on: P. aeruginosa LUH15103; format: cell-based
[3] = tested on: A. baumannii RUH875; format: cell-based
[4] = tested on: E. cloacae LUH15114; format: cell-based
[5] = tested on: S. aureus JAR060131; format: cell-based
[6] = tested on: E. faecium LUH15122; format: cell-based
[7] = tested on: S. aureus JAR060131 biofilm; assay: Biofilm killing; format: cell-based, Staphylococcus aureus; conditions: 24 h biofilm
Protocol: Mid-logarithmic phase cultures of A. baumannii RUH875 or S. aureus JAR060131 were diluted to 1 × 10^8 CFU/mL in RPMI supplemented with 1% glucose. A total of 100 μL of each suspension was added to flat-bottom polystyrene 96-well microplates (Costar) and incubated under static conditions at 37 °C in a humidified atmosphere for 24 h to allow biofilm formation. After 24 h, planktonic bacteria were removed, and wells were carefully washed with 100 μL PBS [60]. […] Control samples were exposed to 100 μL of PBS only.
Biofilms were treated at 37 °C for either 2 or 24 h. […] Plates were sealed and sonicated for 5 min (Elmasonic, Singen, Germany; 45 kHz) at room temperature to dislodge adherent bacteria. […] Quantitative cultures were performed by plating serial 10-fold dilutions on sheep blood agar, and results were expressed as log10 CFU per well. The lower limit of detection was three CFU. Each condition was tested in six replicates.

[8] = tested on: BJ human skin fibroblast cells; assay: LDH leakage assay (membrane integrity); conditions: lowest concentration causing >30% LDH leakage; BJ fibroblasts; 24 h; DMEM with 2% FBS; 0.05-60 µM
Protocol: BJ human skin fibroblast cells (ATCC CRL-2522; RRID: CVCL_3653; LGC Standards, Germany (September 2023)) were cultured in Dulbecco’s Modified Eagle Medium (DMEM; Gibco, Waltham, MA, USA) supplemented with 10% (v/v) foetal bovine serum (FBS; Sigma-Aldrich) and 1% (v/v) penicillin/streptomycin (pen/strep; Gibco). Cell suspensions (5 × 10^5 cells/mL) were seeded into 96-well plates (100 μL/well; Thermo Scientific, Waltham, MA, USA) and allowed to adhere for 24 h. Monolayers were then exposed to two-fold serial dilutions of GDST peptides, their RI variants, and reference peptides (final concentrations: 0.05 to 60 µM) in fresh DMEM with 2% (v/v) FBS for 24 h at 37 °C in a humidified atmosphere with 5% CO2.
Cell viability and membrane integrity were assessed using the water-soluble tetrazolium salt (WST-1; Roche, Basel, Switzerland) assay and the lactate dehydrogenase (LDH; Abcam, Cambridge, UK) assay, respectively, according to manufacturer instructions. Results were expressed as percentages of metabolic activity and LDH leakage relative to untreated control cells and the positive lysis control, respectively. The cytotoxic concentration was defined as the lowest peptide concentration causing <70% metabolic activity and >30% LDH leakage. All experiments were performed in triplicate.

## CC[C@@H](C)[C@@H](NC(=O)[C@@H](CC(C)C)NC(=O)[C@@H](CCCCN)NC(=O)[C@@H](CCCCN)NC(=O)[C@H](NC(=O)[C@@H](Cc1c[nH]c2ccccc12)NC(=O)[C@@H](CCCNC(=N)N)NC(=O)[C@@H](Cc1ccccc1)NC(=O)[C@@H](CC(C)C)NC(C)=O)C(C)C)C(=O)N[C@H](CCCCN)C(=O)N[C@@H](C(=O)N[C@H](Cc1c[nH]c2ccccc12)C(=O)N[C@H](CCCNC(=N)N)C(=O)N[C@H](CCCCN)C(N)=O)C(C)C [GDST-045-RI] (HELM PEPTIDE1{[ac].[dL].[dF].[dR].[dW].[dV].[dK].[dK].[dL].[dI].[dK].[dV].[dW].[dR].[dK].[am]}$$$$V2.0; N-terminus and C-terminus assumed)
[1]; LUH15104, 2 h
  LC99.9 K. pneumoniae LUH15104 50% Plasma 2 h: 15 µM
  LC99.9 K. pneumoniae LUH15104 RPMI 2 h: 15 µM
[1]; LUH15104, 18 h
  LC99.9 K. pneumoniae LUH15104 50% Plasma 18 h: 7.5 µM
  LC99.9 K. pneumoniae LUH15104 RPMI 18 h: 7.5 µM
[2]; LUH15103, 2 h
  LC99.9 P. aeruginosa LUH15103 50% Plasma 2 h: 30 µM
  LC99.9 P. aeruginosa LUH15103 RPMI 2 h: 3.75 µM
[2]; LUH15103, 18 h
  LC99.9 P. aeruginosa LUH15103 50% Plasma 18 h: 30 µM
  LC99.9 P. aeruginosa LUH15103 RPMI 18 h: 3.75 µM
[3]; RUH875, 2 h
  LC99.9 A. baumannii RUH875 50% Plasma 2 h: 1.88 µM
[3]; RUH875, 18 h
  LC99.9 A. baumannii RUH875 50% Plasma 18 h: 0.94 µM
[4]; LUH15114, 2 h
  LC99.9 E. cloacae LUH15114 50% Plasma 2 h: 120 µM
  LC99.9 E. cloacae LUH15114 RPMI 2 h: 15 µM
[4]; LUH15114, 18 h
  LC99.9 E. cloacae LUH15114 50% Plasma 18 h: 30 µM
  LC99.9 E. cloacae LUH15114 RPMI 18 h: 3.75 µM
[5]; JAR060131, 2 h
  LC99.9 S. aureus JAR060131 50% Plasma 2 h: 3.75 µM
  LC99.9 S. aureus JAR060131 RPMI 2 h: 1.88 µM
[5]; JAR060131, 18 h
  LC99.9 S. aureus JAR060131 50% Plasma 18 h: 1.88 µM
[6]; LUH15122, 2 h
  LC99.9 E. faecium LUH15122 50% Plasma 2 h: 1.88 µM
  LC99.9 E. faecium LUH15122 RPMI 2 h: 0.94 µM
[6]; LUH15122, 18 h
  LC99.9 E. faecium LUH15122 50% Plasma 18 h: 3.75 µM
  LC99.9 E. faecium LUH15122 RPMI 18 h: 0.94 µM
[7]; 2 h treatment in PBS
  Concentration giving ≥3-log reduction of S. aureus biofilm CFU within 2 h: ≥ 30 µM
[7]; 24 h treatment in PBS
  Concentration giving complete eradication of S. aureus biofilm within 24 h: 120 µM
[8]
  Cytotoxicity LDH Leakage >30%: 3.75 µM
